Test results from patent EP1517674B1, “PREPARATIONS FOR THE INTRANASAL APPLICATION OF SELECTED CGRP A[…] FROM AMINO ACIDS AND A METHOD FOR THEIR PRODUCTION” (Boehringer Ingelheim Pharma GmbH & Co. KG, priority 2002, dated 2003).

Test: Stability test of higher-concentration nasal spray solutions (hydrochloride in aqueous solution, packed in aluminium pouch)
Type: physicochemical
Conditions: for Gehalt an Wirkstoff (A): as free base
Description: Stabilitätsprüfung höher konzentrierter erfindungsgemäßer Nasalspray-Lösungen:
Die nachfolgende Tabelle zeigt, dass die oxidative Zersetzung des nachstehend aufgeführten Wirkstoffs
Die zum Teil (insbesondere bei 40°C) hohe Gesamtzersetzung beruht auf Hydrolyse.
Der in der Tabelle 1 angegebene Gehalt an Wirkstoff (A) bezieht sich jeweils auf die ursprünglich eingewogene freie Base.

[1] = Wirkstoff-Konzentration 15 %, 3-Monats-Wert, 25°C, 129600 min
[2] = Wirkstoff-Konzentration 15 %, 3-Monats-Wert, 40°C, 129600 min
[3] = Wirkstoff-Konzentration 15 %, 6-Monats-Wert, 25°C, 259200 min
[4] = Wirkstoff-Konzentration 15 %, 6-Monats-Wert, 40°C, 259200 min
[5] = Wirkstoff-Konzentration 15 %, 6-Wochen-Wert, 25°C, 60480 min
[6] = Wirkstoff-Konzentration 15 %, 6-Wochen-Wert, 40°C, 60480 min
[7] = Wirkstoff-Konzentration 15 %, Anfangswert
[8] = Wirkstoff-Konzentration 20 %, 3-Monats-Wert, 25°C, 129600 min
[9] = Wirkstoff-Konzentration 20 %, 3-Monats-Wert, 40°C, 129600 min
[10] = Wirkstoff-Konzentration 20 %, 6-Monats-Wert, 25°C, 259200 min
[11] = Wirkstoff-Konzentration 20 %, 6-Monats-Wert, 40°C, 259200 min
[12] = Wirkstoff-Konzentration 20 %, 6-Wochen-Wert, 25°C, 60480 min
[13] = Wirkstoff-Konzentration 20 %, 6-Wochen-Wert, 40°C, 60480 min
[14] = Wirkstoff-Konzentration 20 %, Anfangswert
[15] = Wirkstoff-Konzentration 30 %, 3-Monats-Wert, 25°C, 129600 min
[16] = Wirkstoff-Konzentration 30 %, 3-Monats-Wert, 40°C, 129600 min
[17] = Wirkstoff-Konzentration 30 %, 6-Monats-Wert, 25°C, 259200 min
[18] = Wirkstoff-Konzentration 30 %, 6-Monats-Wert, 40°C, 259200 min
[19] = Wirkstoff-Konzentration 30 %, 6-Wochen-Wert, 25°C, 60480 min
[20] = Wirkstoff-Konzentration 30 %, 6-Wochen-Wert, 40°C, 60480 min
[21] = Wirkstoff-Konzentration 30 %, Anfangswert

In the case of NCCCC[C@H](NC(=O)[C@@H](Cc1cc(Br)c(O)c(Br)c1)NC(=O)N1CCC(N2Cc3ccccc3NC2=O)CC1)C(=O)N1CCN(c2ccncc2)CC1 [(A), 1-[N^2-[3,5-Dibrom-N-[[4-(3,4-dihydro-2(1 H)-oxochinazolin-3-yl)-1-piperidinyl]-carbonyl]-D-tyrosyl]-L-lysyl]-4-(4-pyridinyl)-piperazin], the Gesamt-Zersetzung [1] is reported as 1,69%, the “Zersetzung durch Oxidation” value [1] is reported as 0,64% and the “Gehalt an Wirkstoff (A)” value (Wirkstoff-Konzentration 15 %, 3-Monats-Wert, 25°C) is reported as 147,7mg/ml. For the same compound, the Gesamt-Zersetzung [2] was 8,22%, the “Zersetzung durch Oxidation” value [2] was 0,55% and the “Gehalt an Wirkstoff (A)” value (Wirkstoff-Konzentration 15 %, 3-Monats-Wert, 40°C) was 139,4mg/ml. The Gesamt-Zersetzung [3] was 2,07%, the “Zersetzung durch Oxidation” value [3] was 0,82% and the “Gehalt an Wirkstoff (A)” value (Wirkstoff-Konzentration 15 %, 6-Monats-Wert, 25°C) was 147,7mg/ml. For the same compound, the Gesamt-Zersetzung [4] was 15.33%, the “Zersetzung durch Oxidation” value [4] was 0,78% and the “Gehalt an Wirkstoff (A)” value (Wirkstoff-Konzentration 15 %, 6-Monats-Wert, 40°C) was 131,7mg/ml. For the same compound, the Gesamt-Zersetzung [5] was 1,60%, the “Zersetzung durch Oxidation” value [5] was 0,72% and the “Gehalt an Wirkstoff (A)” value (Wirkstoff-Konzentration 15 %, 6-Wochen-Wert, 25°C) was 148,1mg/ml. For the same compound, the Gesamt-Zersetzung [6] was 4,46%, the “Zersetzung durch Oxidation” value [6] was 0,52% and the “Gehalt an Wirkstoff (A)” value (Wirkstoff-Konzentration 15 %, 6-Wochen-Wert, 40°C) was 142,3mg/ml. The Gesamt-Zersetzung [7] was 1,23%, the “Zersetzung durch Oxidation” value [7] was 0,59% and the “Gehalt an Wirkstoff (A)” value [7] was 148,6mg/ml. The Gesamt-Zersetzung [8] was 1,50%, the “Zersetzung durch Oxidation” value [8] was 0,53% and the “Gehalt an Wirkstoff (A)” value (Wirkstoff-Konzentration 20 %, 3-Monats-Wert, 25°C) was 202,8mg/ml. The Gesamt-Zersetzung [9] was 8,23%, the “Zersetzung durch Oxidation” value [9] was 0,47% and the “Gehalt an Wirkstoff (A)” value (Wirkstoff-Konzentration 20 %, 3-Monats-Wert, 40°C) was 191,4mg/ml. The Gesamt-Zersetzung [10] was 1,99%, the “Zersetzung durch Oxidation” value [10] was 0,77% and the “Gehalt an Wirkstoff (A)” value (Wirkstoff-Konzentration 20 %, 6-Monats-Wert, 25°C) was 201,8m/ml. The Gesamt-Zersetzung [11] was 14,61%, the “Zersetzung durch Oxidation” value [11] was 0,74% and the “Gehalt an Wirkstoff (A)” value (Wirkstoff-Konzentration 20 %, 6-Monats-Wert, 40°C) was 182,8mg/ml. For the same compound, the Gesamt-Zersetzung [12] was 1,09%, the “Zersetzung durch Oxidation” value [12] was 0,54% and the “Gehalt an Wirkstoff (A)” value (Wirkstoff-Konzentration 20 %, 6-Wochen-Wert, 25°C) was 198,7mg/ml. The Gesamt-Zersetzung [13] was 3,97%, the “Zersetzung durch Oxidation” value [13] was 0,55% and the “Gehalt an Wirkstoff (A)” value (Wirkstoff-Konzentration 20 %, 6-Wochen-Wert, 40°C) was 192,1mg/ml. The Gesamt-Zersetzung [14] was 1,27%, the “Zersetzung durch Oxidation” value [14] was 0,56% and the “Gehalt an Wirkstoff (A)” value [14] was 197,9mg/ml. For the same compound, the Gesamt-Zersetzung [15] was 1,48%, the “Zersetzung durch Oxidation” value [15] was 0,60% and the “Gehalt an Wirkstoff (A)” value (Wirkstoff-Konzentration 30 %, 3-Monats-Wert, 25°C) was 270 mg/mL. For the same compound, the Gesamt-Zersetzung [16] was 7.81%, the “Zersetzung durch Oxidation” value [16] was 0,59% and the “Gehalt an Wirkstoff (A)” value (Wirkstoff-Konzentration 30 %, 3-Monats-Wert, 40°C) was 260 mg/mL. The Gesamt-Zersetzung [17] was 2,04%, the “Zersetzung durch Oxidation” value [17] was 0,91% and the “Gehalt an Wirkstoff (A)” value (Wirkstoff-Konzentration 30 %, 6-Monats-Wert, 25°C) was 273 mg/mL. For the same compound, the Gesamt-Zersetzung [18] was 13,36%, the “Zersetzung durch Oxidation” value [18] was 0,84% and the “Gehalt an Wirkstoff (A)” value (Wirkstoff-Konzentration 30 %, 6-Monats-Wert, 40°C) was 246 mg/mL. The Gesamt-Zersetzung [19] was 1,19%, the “Zersetzung durch Oxidation” value [19] was 0,62% and the “Gehalt an Wirkstoff (A)” value (Wirkstoff-Konzentration 30 %, 6-Wochen-Wert, 25°C) was 264 mg/mL. The Gesamt-Zersetzung [20] was 3,95%, the “Zersetzung durch Oxidation” value [20] was 0,58% and the “Gehalt an Wirkstoff (A)” value (Wirkstoff-Konzentration 30 %, 6-Wochen-Wert, 40°C) was 260 mg/mL. The Gesamt-Zersetzung [21] was 1,20%, the “Zersetzung durch Oxidation” value [21] was 0,56% and the “Gehalt an Wirkstoff (A)” value [21] was 269 mg/mL. For the same compound, the “oxidative Zersetzung” value (hydrochloride in aqueous solution, over a long period) was “praktisch unverändert”.
